In patent US20250340575A1, “4-AMINOPYRROLO[2,1-F][1,2,4]TRIAZINES AND PREPARATION AND USES THEREOF” (Biosplice Therapeutics, Inc., priority 2024, published 2025) one finds IC50 data, which are given here for 20 molecules.

This experiment deals with recombinant DYRK1A kinase (Homo sapiens, UniProt Q13627). The experiment can be described thus: DYRK1A kinase assay (Ser/Thr 18 peptide Z-lyte FRET). The class given is biochemical. The settings on record: DYRK1A 0.25 μg/mL, ATP 15 μM, Ser/Thr peptide 18 4 μM, one hour at room temperature, 11-point dose-response from 10 μM. As for the experimental part:
Representative compounds were screened using the assay procedure for DYRK1A kinase activity as described below.
Each compound was dissolved in DMSO as a 10 mM stock and used to prepare compound source plates. Serial dilution (1:3, 11-point dose-response curves from 10 μM to 0.00016 μM) and compound transfer was performed using the ECHO 550 (Labcyte, Sunnyvale, CA) into 1536-well black-walled round bottom plates (Corning).
The DYRK1A kinase assay was run using the Ser/Thr 18 peptide Z-lyte assay kit according to manufacturer's instructions (Life Technologies—a Division of Thermo-Fisher). This is a non-radioactive assay using fluorescence resonance energy transfer (FRET) between coumarin and fluorescein to detect kinase activity which is represented as a ratio of coumarin emission/fluorescein emission.
Briefly, recombinant DYRK1A kinase, ATP and Ser/Thr peptide 18 were prepared in 1× Kinase buffer to final concentrations of 0.25 μg/mL, 15 μM, and 4 μM respectively. The mixture was allowed to incubate with the representative compounds for one hour at room temperature. All reactions were performed in duplicate. Unphosphorylated (“0% Control”) and phosphorylated (“100% control”) forms of Ser/Thr 18 served as control reactions. Additionally, an 11-point dose-response curve of Staurosporine (1 uM top) was run to serve as a positive compound control.
After incubation, Development Reagent A was diluted in Development Buffer then added to the reaction and allowed to further incubate for one hour at room temperature. The plate was read at Ex 400 Em 455 to detect the coumarin signal and Ex 400 Em 520 to measure the signal (EnVision Multilabel Plate Reader, PerkinElmer).
The Emission ratio (Em) was calculated as a ratio of the coumarin (C) emission signal (at 445 nm)/Fluorescein (F) emission signal (at 520 nm). The percent phosphorylation was then calculated using the following formula: [1−((Em ratio×F100%)−C100%)/((C0%−C100%)+(Em ratio×(F100%−F0%)))]. Dose-response curves were generated, and inhibitory concentration (IC50) values were calculated using non-linear regression curve fit in the Dotmatics' Studies Software (Bishops Stortford, UK).
For the molecule `CC(=O)N1CC[C@H](Nc2nc(N)c3c(-c4ccc5nccn5n4)c(F)cn3n2)[C@H](F)C1` [Compound 38, 1-((3R,4S)-4-((4-Amino-6-fluoro-5-(imidazo[1,2-b]pyridazin-6-yl)pyrrolo [2,1-f][1,2,4]triazin-2-yl)amino)-3-fluoropiperidin-1-yl)ethan-1-one], the IC50 (as a rule, the concentration that inhibits the measured activity by half) stood at 3.4 nM.

On to `Nc1nc(N[C@H]2CCN(C3COC3)C[C@H]2F)nn2cc(F)c(-c3ccc4nccn4n3)c12` [Compound 39, 6-Fluoro-N2-((3R,4S)-3-fluoro-1-(oxetan-3-yl)piperidin-4-yl)-5-(imidazo[1,2-b]pyridazin-6-yl)pyrrolo[2,1-f][1,2,4]triazine-2,4-diamine], for which the IC50 was 3.1 nM.

For `CN1CC[C@@H](Nc2nc(N)c3c(-c4ccc5nccn5n4)c(F)cn3n2)C(F)(F)C1` [Compound 40, (R)—N2-(3,3-Difluoro-1-methylpiperidin-4-yl)-6-fluoro-5-(imidazo[1,2-b]pyridazin-6-yl)pyrrolo[2,1-f][1,2,4]triazine-2,4-diamine], the IC50 was 2.7 nM.

With `CC(=O)N1CC[C@@H](Nc2nc(N)c3c(-c4ccc5nccn5n4)c(F)cn3n2)C(F)(F)C1` [Compound 41, (R)-1-(4-((4-Amino-6-fluoro-5-(imidazo[1,2-b]pyridazin-6-yl)pyrrolo[2,1-f][1,2,4]triazin-2-yl)amino)-3,3-difluoropiperidin-1-yl)ethan-1-one], the IC50 is 2 nM.

Take `Nc1nc(N[C@@H]2CCN(C3COC3)CC2(F)F)nn2cc(F)c(-c3ccc4nccn4n3)c12` [Compound 43, (R)—N2-(3,3-Difluoro-1-(oxetan-3-yl)piperidin-4-yl)-6-fluoro-5-(imidazo [1,2-b]pyridazin-6-yl)pyrrolo[2,1-f][1,2,4]triazine-2,4-diamine]: the IC50 was found to be 3.1 nM.

In the case of `CNc1nc(N[C@@H]2CCN(C(C)=O)CC2(F)F)nn2ccc(-c3ccc4nccn4n3)c12` [Compound 46, (R)-1-(3,3-Difluoro-4-((5-(imidazo[1,2-b]pyridazin-6-yl)-4-(methylamino)pyrrolo[2,1-f][1,2,4]triazin-2-yl)amino)piperidin-1-yl)ethan-1-one], the IC50 came out at 3 nM.

As for `CNc1nc(N[C@@H]2CCN(S(C)(=O)=O)CC2(F)F)nn2ccc(-c3ccc4nccn4n3)c12` [Compound 48, (R)—N2-(3,3-Difluoro-1-(methylsulfonyl)piperidin-4-yl)-5-(imidazo[1,2-b]pyridazin-6-yl)-N4-methylpyrrolo[2,1-f][1,2,4]triazine-2,4-diamine], the IC50 was found to be 2.2 nM.

For the molecule `CNc1nc(N[C@H]2CCN(C(C)=O)C[C@H]2F)nn2cc(F)c(-c3ccc4nccn4n3)c12` [Compound 53, 1-((3R,4S)-3-Fluoro-4-((6-fluoro-5-(imidazo[1,2-b]pyridazin-6-yl)-4-(methylamino)pyrrolo[2,1-f][1,2,4]triazin-2-yl)amino)piperidin-1-yl)ethan-1-one], the IC50 came out at 2.5 nM.

For the molecule `CNc1nc(N[C@H]2CCN(C3COC3)C[C@H]2F)nn2cc(F)c(-c3ccc4nccn4n3)c12` [Compound 54, 6-Fluoro-N^2-((3R,4S)-3-fluoro-1-(oxetan-3-yl)piperidin-4-yl)-5-(imidazo [1,2-b]pyridazin-6-yl)-N^4-methylpyrrolo[2,1-f][1,2,4]triazine-2,4-diamine], the IC50 turned out to be 2.4 nM.

Take `CNc1nc(N[C@@H]2CCN(C)CC2(F)F)nn2cc(F)c(-c3ccc4nccn4n3)c12` [Compound 55, (R)—N^2-(3,3-Difluoro-1-methylpiperidin-4-yl)-6-fluoro-5-(imidazo[1,2-b]pyridazin-6-yl)-N^4-methylpyrrolo[2,1-f][1,2,4]triazine-2,4-diamine]: the IC50 is 4 nM.

On to `CNc1nc(N[C@@H]2CCN(C(C)=O)CC2(F)F)nn2cc(F)c(-c3ccc4nccn4n3)c12` [Compound 56, (R)-1-(3,3-Difluoro-4-((6-fluoro-5-(imidazo[1,2-b]pyridazin-6-yl)-4-(methylamino)pyrrolo[2,1-f][1,2,4]triazin-2-yl)amino)piperidin-1-yl)ethan-1-one], for which the IC50 amounted to 1.4 nM.

In the case of `CNc1nc(N[C@@H]2CCN(C3COC3)CC2(F)F)nn2cc(F)c(-c3ccc4nccn4n3)c12` [Compound 58, (R)—N^2-(3,3-Difluoro-1-(oxetan-3-yl)piperidin-4-yl)-6-fluoro-5-(imidazo[1,2-b]pyridazin-6-yl)-N^4-methylpyrrolo[2,1-f][1,2,4]triazine-2,4-diamine], the IC50 came to 1.9 nM.

Take `C[C@]1(O)CC[C@H](Nc2nc(N)c3c(-c4ccc5ncn(CCF)c5n4)ccn3n2)CC1` [Compound 112, (1r,4r)-4-((4-Amino-5-(3-(2-fluoroethyl)-3H-imidazo[4,5-b]pyridin-5-yl)pyrrolo[2,1-f][1,2,4]triazin-2-yl)amino)-1-methylcyclohexan-1-ol]: the IC50 amounted to 1.2 nM.

Take `CN1CC[C@H](Nc2nc(N)c3c(-c4ccc5ncn(CCF)c5n4)ccn3n2)[C@H](F)C1` [Compound 113, N^2-((3R,4S)-3-Fluoro-1-methylpiperidin-4-yl)-5-(3-(2-fluoroethyl)-3H-imidazo[4,5-b]pyridin-5-yl)pyrrolo[2,1-f][1,2,4]triazine-2,4-diamine]: the IC50 came out at 0.8 nM.

Consider `COCCN1CC[C@H](Nc2nc(N)c3c(-c4ccc5ncn(CCF)c5n4)ccn3n2)[C@H](F)C1` [Compound 114, N^2-((3R,4S)-3-Fluoro-1-(2-methoxyethyl)piperidin-4-yl)-5-(3-(2-fluoroethyl)-3H-imidazo[4,5-b]pyridin-5-yl)pyrrolo[2,1-f][1,2,4]triazine-2,4-diamine], for which the IC50 is 1.6 nM.

For the molecule `CC(=O)N1CC[C@H](Nc2nc(N)c3c(-c4ccc5ncn(CCF)c5n4)ccn3n2)[C@H](F)C1` [Compound 115, 1-((3R,4S)-4-((4-Amino-5-(3-(2-fluoroethyl)-3H-imidazo[4,5-b]pyridin-5-yl)pyrrolo[2,1-f][1,2,4]triazin-2-yl)amino)-3-fluoropiperidin-1-yl)ethan-1-one], the IC50 was found to be 1 nM.

With `Nc1nc(N[C@@H]2CCN(C3COC3)C[C@@H]2F)nn2ccc(-c3ccc4ncn(CCF)c4n3)c12` [Compound 116, N^2-((3S,4R)-3-Fluoro-1-(oxetan-3-yl)piperidin-4-yl)-5-(3-(2-fluoroethyl)-3H-imidazo[4,5-b]pyridin-5-yl)pyrrolo[2,1-f][1,2,4]triazine-2,4-diamine], the IC50 was 1.6 nM.

Turning to `Nc1nc(N[C@H]2CCN(C3COC3)C[C@H]2F)nn2ccc(-c3ccc4ncn(CCF)c4n3)c12` [Compound 117, N^2-((3R,4S)-3-Fluoro-1-(oxetan-3-yl)piperidin-4-yl)-5-(3-(2-fluoroethyl)-3H-imidazo[4,5-b]pyridin-5-yl)pyrrolo[2,1-f][1,2,4]triazine-2,4-diamine], the IC50 was determined as 0.9 nM.

`CC(=O)N1CC[C@@H](Nc2nc(N)c3c(-c4ccc5ncn(CCF)c5n4)ccn3n2)C(F)(F)C1` [Compound 118, (R)-1-(4-((4-Amino-5-(3-(2-fluoroethyl)-3H-imidazo[4,5-b]pyridin-5-yl)pyrrolo[2,1-f][1,2,4]triazin-2-yl)amino)-3,3-difluoropiperidin-1-yl)ethan-1-one]: the IC50 was found to be 0.5 nM.

In the case of `Nc1nc(N[C@@H]2CCN(C3COC3)CC2(F)F)nn2ccc(-c3ccc4ncn(CCF)c4n3)c12` [Compound 119, (R)—N^2-(3,3-Difluoro-1-(oxetan-3-yl)piperidin-4-yl)-5-(3-(2-fluoroethyl)-3H-imidazo[4,5-b]pyridin-5-yl)pyrrolo[2,1-f][1,2,4]triazine-2,4-diamine], the IC50 worked out at 1.4 nM.
